In brackets after ≈: the same amount, converted by molar mass.
System: not listed separately
Test: Selectivity index, ratio of CC50 for african green monkey Vero cells to EC50 for HSV1 infected in African green monkey Vero cells
Details: not given
In the case of `Cc1ccccc1Nc1nc(N)nc(CSc2nnc(-c3ccccc3)n2-c2ccccc2)n1`, the “Ratio CC50/EC50” value was 234. In the case of `COc1ccc(Nc2nc(N)nc(CSc3nnc(-c4ccncc4)n3-c3ccccc3)n2)cc1`, the “Ratio CC50/EC50” value was 215. With `Nc1nc(CSc2nc3ccccc3[nH]2)nc(Nc2ccc(Cl)cc2)n1` the “Ratio CC50/EC50” value was 175. For `Nc1nc2c(ncn2COCCO)c(=O)[nH]1` [ACYCLOVIR], the “Ratio CC50/EC50” value was 850. For `Cc1ccccc1Nc1nc(N)nc(CSc2nnc(-c3ccncc3)n2-c2ccccc2)n1`, the “Ratio CC50/EC50” value was 275. With `COc1ccc(Nc2nc(N)nc(CSc3nnc(-c4ccccc4)n3/N=C/c3ccccc3)n2)cc1` the “Ratio CC50/EC50” value was 188. In the case of `Cc1ccccc1Nc1nc(N)nc(CSc2nnc(-c3ccccc3)n2/N=C/c2ccccc2)n1`, the “Ratio CC50/EC50” value was 358. In the case of `Cc1ccccc1Nc1nc(N)nc(CSc2nnc(-c3ccccc3)n2/N=C/c2ccc(Br)cc2)n1`, the “Ratio CC50/EC50” value was 300.

System: not listed separately
Test: Cytotoxicity against Chlorocebus aethiops (African green monkey) Vero cells assessed as cell viability after 3 days by Alamar blue assay
Format: cell-based
Details: chlorocebus sabaeus
In the case of `Cc1ccccc1Nc1nc(N)nc(CSc2nnc(-c3ccccc3)n2-c2ccccc2)n1`, the CC50 at 72 h was 1750 µg/mL (≈ 3750 µM). `COc1ccc(Nc2nc(N)nc(CSc3nnc(-c4ccncc4)n3-c3ccccc3)n2)cc1` gave a CC50 at 72 h of 1500 µg/mL (≈ 3100 µM). For `Nc1nc(CSc2nc3ccccc3[nH]2)nc(Nc2ccc(Cl)cc2)n1`, the CC50 at 72 h was 1500 µg/mL (≈ 3910 µM). Work on `Nc1nc2c(ncn2COCCO)c(=O)[nH]1` [ACYCLOVIR] yielded a CC50 at 72 h of 1280 µg/mL (≈ 5660 µM). Work on `Cc1ccccc1Nc1nc(N)nc(CSc2nnc(-c3ccncc3)n2-c2ccccc2)n1` yielded a CC50 at 72 h of 1650 µg/mL (≈ 3530 µM). Compound `COc1ccc(Nc2nc(N)nc(CSc3nnc(-c4ccccc4)n3/N=C/c3ccccc3)n2)cc1` has a CC50 at 72 h of 1500 µg/mL (≈ 2940 µM). For `Cc1ccccc1Nc1nc(N)nc(CSc2nnc(-c3ccccc3)n2/N=C/c2ccccc2)n1`, the CC50 at 72 h was 1250 µg/mL (≈ 2530 µM). With `Cc1ccccc1Nc1nc(N)nc(CSc2nc3ccccc3[nH]2)n1` the CC50 at 72 h was > 2000 µg/mL. `Cc1ccccc1Nc1nc(N)nc(CSc2nnc(-c3ccccc3)n2/N=C/c2ccc(Br)cc2)n1` gave a CC50 at 72 h of 1500 µg/mL (≈ 2620 µM).

System: Human alphaherpesvirus 1
Test: Antiviral activity against Human herpesvirus 1 infected African green monkey Vero cells assessed as protection against virus-induced cytopathic effect after 3 days by plaque reduction assay
Format: functional, organism-based
Details: Human alphaherpesvirus 1, Vero, 72 h
In the case of `Nc1nc(CSc2nc3ccccc3[nH]2)nc(Nc2ccccc2)n1`, the EC50 was > 10 µg/mL. For `Cc1ccc(Nc2nc(N)nc(CSc3nc4cc(C)ccc4[nH]3)n2)cc1`, the EC50 was > 10 µg/mL. For `COc1ccc(Nc2nc(N)nc(CSc3nnc(-c4ccccc4)n3-c3ccccc3)n2)cc1`, the EC50 was > 10 µg/mL. With `Cc1ccc2[nH]c(SCc3nc(N)nc(Nc4ccccc4)n3)nc2c1` the EC50 was > 10 µg/mL. With `Cc1ccc2[nH]c(SCc3nc(N)nc(Nc4ccccc4C)n3)nc2c1` the EC50 was > 10 µg/mL. `Cc1ccccc1Nc1nc(N)nc(CSc2nnc(-c3ccccc3)n2-c2ccccc2)n1` showed an EC50 of 7.5 µg/mL (≈ 16.1 µM). `COc1ccc(Nc2nc(N)nc(CSc3nnc(-c4ccncc4)n3-c3ccccc3)n2)cc1` showed an EC50 of 7 µg/mL (≈ 14.5 µM). With `Nc1nc(CSc2nc3ccccc3[nH]2)nc(Nc2ccc(Cl)cc2)n1` the EC50 was 8.5 µg/mL (≈ 22.1 µM). `Nc1nc2c(ncn2COCCO)c(=O)[nH]1` [ACYCLOVIR] gave an EC50 of 1.5 µg/mL (≈ 6.66 µM). For `Cc1ccccc1Nc1nc(N)nc(CSc2nnc(-c3ccncc3)n2-c2ccccc2)n1`, the EC50 was 6 µg/mL (≈ 12.8 µM). For `COc1ccc(Nc2nc(N)nc(CSc3nnc(-c4ccccc4)n3/N=C/c3ccccc3)n2)cc1`, the EC50 was 8 µg/mL (≈ 15.7 µM). In the case of `Cc1ccc(Nc2nc(N)nc(CSc3nc4ccccc4[nH]3)n2)cc1`, the EC50 was > 10 µg/mL. Compound `Cc1ccccc1Nc1nc(N)nc(CSc2nnc(-c3ccccc3)n2/N=C/c2ccccc2)n1` has an EC50 of 3.5 µg/mL (≈ 7.09 µM). Work on `Cc1ccccc1Nc1nc(N)nc(CSc2nc3ccccc3[nH]2)n1` yielded an EC50 of 9 µg/mL (≈ 24.8 µM). In the case of `COc1ccc(Nc2nc(N)nc(CSc3nc4ccccc4[nH]3)n2)cc1`, the EC50 was > 10 µg/mL. `Cc1ccccc1Nc1nc(N)nc(CSc2nnc(-c3ccccc3)n2/N=C/c2ccc(Br)cc2)n1` gave an EC50 of 5 µg/mL (≈ 8.73 µM).

Source: ChEMBL document CHEMBL3046134, “Synthesis and antiviral activity of benzimidazolyl- and triazolyl-1,3,5-triazines” (Med Chem Res, 2012)
